The test concerns the target T1, KCNQ2/3 channels (Homo sapiens, UniProt O43525+O43526).
T1 construct: expressed in transfected cells
The experiment in a line: Fluorescence assay using a voltage sensitive dye (fluorimetry). The conditions noted are these: CHO-K1 cells expressing KCNQ2/3; for Emax: CHO-K1, plateau effect relative to saturated retigabine (50 μM) = 100%, negative values = antagonistic, read-out: Fluorimetry % efficacy (retigabine = 100%); for EC50: IC50 where % efficacy is negative, read-out: Fluorimetry EC50/IC50. It counts as cell-based.

T1 sequence (O43526 whole entry): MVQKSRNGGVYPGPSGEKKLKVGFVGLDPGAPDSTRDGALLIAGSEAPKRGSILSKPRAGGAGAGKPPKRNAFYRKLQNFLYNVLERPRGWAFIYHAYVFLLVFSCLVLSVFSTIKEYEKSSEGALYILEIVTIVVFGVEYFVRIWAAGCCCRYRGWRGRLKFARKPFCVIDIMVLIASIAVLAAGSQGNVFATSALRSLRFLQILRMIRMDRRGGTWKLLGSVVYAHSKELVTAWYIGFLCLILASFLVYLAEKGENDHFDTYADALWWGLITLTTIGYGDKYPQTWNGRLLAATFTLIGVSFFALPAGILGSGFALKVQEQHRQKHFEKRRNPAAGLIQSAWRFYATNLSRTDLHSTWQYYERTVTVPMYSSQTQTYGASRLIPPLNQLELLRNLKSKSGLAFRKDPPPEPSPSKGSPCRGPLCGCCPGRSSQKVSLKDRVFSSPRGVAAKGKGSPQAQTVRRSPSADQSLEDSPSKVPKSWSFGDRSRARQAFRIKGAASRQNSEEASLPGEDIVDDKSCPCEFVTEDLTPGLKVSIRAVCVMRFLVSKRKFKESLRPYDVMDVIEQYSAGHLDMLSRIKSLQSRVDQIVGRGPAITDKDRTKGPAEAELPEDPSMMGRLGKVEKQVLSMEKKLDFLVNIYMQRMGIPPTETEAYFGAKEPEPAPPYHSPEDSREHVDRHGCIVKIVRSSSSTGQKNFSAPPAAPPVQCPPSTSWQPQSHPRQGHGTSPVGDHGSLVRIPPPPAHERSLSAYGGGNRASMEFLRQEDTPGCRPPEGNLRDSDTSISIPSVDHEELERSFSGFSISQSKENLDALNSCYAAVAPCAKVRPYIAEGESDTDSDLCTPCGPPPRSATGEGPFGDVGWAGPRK
T1 sequence (O43525 whole entry): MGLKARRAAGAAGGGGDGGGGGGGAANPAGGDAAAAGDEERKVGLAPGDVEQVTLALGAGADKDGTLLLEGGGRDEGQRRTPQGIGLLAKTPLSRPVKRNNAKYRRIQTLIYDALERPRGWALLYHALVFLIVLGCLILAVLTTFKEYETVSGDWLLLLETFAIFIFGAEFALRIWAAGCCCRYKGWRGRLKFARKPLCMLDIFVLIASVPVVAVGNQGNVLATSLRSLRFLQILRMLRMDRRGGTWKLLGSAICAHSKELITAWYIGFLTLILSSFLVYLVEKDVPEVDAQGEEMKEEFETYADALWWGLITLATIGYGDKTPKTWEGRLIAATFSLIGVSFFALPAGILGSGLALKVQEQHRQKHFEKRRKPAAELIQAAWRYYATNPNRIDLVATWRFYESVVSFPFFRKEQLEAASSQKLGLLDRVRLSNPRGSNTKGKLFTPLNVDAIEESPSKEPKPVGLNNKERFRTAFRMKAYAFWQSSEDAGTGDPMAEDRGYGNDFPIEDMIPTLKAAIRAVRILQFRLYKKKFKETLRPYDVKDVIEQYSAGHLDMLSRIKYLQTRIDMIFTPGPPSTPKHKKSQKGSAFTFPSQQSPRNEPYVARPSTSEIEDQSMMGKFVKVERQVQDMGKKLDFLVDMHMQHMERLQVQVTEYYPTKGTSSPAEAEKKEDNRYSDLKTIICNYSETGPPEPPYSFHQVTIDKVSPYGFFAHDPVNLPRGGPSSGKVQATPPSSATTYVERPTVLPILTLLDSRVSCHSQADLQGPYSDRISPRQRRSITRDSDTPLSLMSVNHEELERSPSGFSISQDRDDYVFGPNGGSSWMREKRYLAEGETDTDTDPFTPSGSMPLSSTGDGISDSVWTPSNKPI

Turning to `CSc1nc(N2CCOCC2)cc(C)c1C(=O)NCCCC(F)(F)F` [Example 153, 4-Methyl-2-methylsulfanyl-6-morpholin-4-yl-N-(4,4,4-trifluoro-butyl)-pyridine-3-carboxylic acid amide], the Emax is 210% and the EC50 came to 676 nM.

For `CSc1nc(N2CCOCC2)cc(C)c1C(=O)NCc1ccc(F)cc1` [Example 154, N-[(4-Fluorophenyl)-methyl]-4-methyl-2-methylsulfanyl-6-morpholin-4-yl-pyridine-3-carboxylic acid amide], the Emax is 154% and the EC50 was 394 nM.

Regarding `CSc1nc(N2CCOCC2)cc(C)c1C(=O)NCc1ccc(F)c(F)c1` [Example 155, N-[(3,4-Difluoro-phenyl)-methyl]-4-methyl-2-methylsulfanyl-6-morpholin-4-yl-pyridine-3-carboxylic acid amide], the Emax turned out to be 158% and the EC50 stood at 152 nM.

Turning to `CSc1nc(N2CCOCC2)cc(C)c1C(=O)NCc1cc(F)cc(F)c1` [Example 156, N-[(3,5-Difluoro-phenyl)-methyl]-4-methyl-2-methylsulfanyl-6-morpholin-4-yl-pyridine-3-carboxylic acid amide], the Emax came out at 167% and the EC50 stood at 157 nM.

With `CSc1nc(N2CCOCC2)cc(C)c1C(=O)NCc1ccc(C(F)(F)F)cc1` [Example 157, 4-Methyl-2-methylsulfanyl-6-morpholin-4-yl-N-[[4-(trifluoromethyl)-phenyl]-methyl]-pyridine-3-carboxylic acid amide], the Emax worked out at 127% and the EC50 amounted to 166 nM.

For the compound `CCSc1nc(N2CCN3C(=O)CCC3C2)cc(C)c1C(=O)NCc1cccc(F)c1` (centres unmarked) [Example 158, 2-Ethylsulfanyl-N-[(3-fluorophenyl)-methyl]-4-methyl-6-(6-oxo-2,3,4,7,8,8a-hexahydro-1H-pyrrolo[1,2-a]pyrazin-2-yl)-pyridine-3-carboxylic acid amide], the Emax is 60%.

Consider `CCSc1nc(N2CC3CC2CO3)cc(C)c1C(=O)NCc1cccc(F)c1` (centres unmarked) [Example 159, 2-Ethylsulfanyl-N-[(3-fluorophenyl)-methyl]-4-methyl-6-(3-oxa-6-azabicyclo[2.2.1]heptan-6-yl)-pyridine-3-carboxylic acid amide], for which the Emax came to 149% and the EC50 came out at 1260 nM.

For the compound `CCSc1nc(N2CCOCC2)cc(C)c1C(=O)NCCCC#N` [Example 160, N-(3-Cyano-propyl)-2-ethylsulfanyl-4-methyl-6-morpholin-4-yl-pyridine-3-carboxylic acid amide], the Emax worked out at 70%.

Consider `CCSc1nc(N2CCOCC2)cc(C)c1C(=O)NCc1ccc(C)cc1` [Example 161, 2-Ethylsulfanyl-4-methyl-6-morpholin-4-yl-N-(p-tolyl-methyl)-pyridine-3-carboxylic acid amide], for which the Emax is 143% and the EC50 came to 366 nM.

Consider `CCSc1nc(N2CCOCC2)cc(C)c1C(=O)NCCCS(C)(=O)=O` [Example 162, 2-Ethylsulfanyl-4-methyl-N-(3-methylsulfonyl-propyl)-6-morpholin-4-yl-pyridine-3-carboxylic acid amide], for which the Emax stood at 21%.

As to `CCSc1nc(N2CCOCC2)cc(C)c1C(=O)NCCCCC#N` [Example 163, N-(4-Cyano-butyl)-2-ethylsulfanyl-4-methyl-6-morpholin-4-yl-pyridine-3-carboxylic acid amide], the Emax worked out at 73%.

`CCSc1nc(N2CCOCC2)cc(C)c1C(=O)NCc1cccc(C)c1` [Example 164, 2-Ethylsulfanyl-4-methyl-6-morpholin-4-yl-N-(m-tolyl-methyl)-pyridine-3-carboxylic acid amide]: the Emax stood at 122% and the EC50 amounted to 237 nM.

`COc1nc(N2CCOCC2)cc(C)c1C(=O)NCc1ccc(Cl)cc1` [Example 165, N-[(4-Chlorophenyl)-methyl]-2-methoxy-4-methyl-6-morpholin-4-yl-pyridine-3-carboxylic acid amide]: the Emax was determined as 135% and the EC50 was 230 nM.

As for `CCOc1nc(N2CCOCC2)cc(C)c1C(=O)NCc1ccc(Cl)cc1` [Example 166, N-[(4-Chlorophenyl)-methyl]-2-ethoxy-4-methyl-6-morpholin-4-yl-pyridine-3-carboxylic acid amide], the Emax came out at 134% and the EC50 stood at 117 nM.

`CCSc1nc(N2CCOC(CC)C2)cc(C)c1C(=O)NCc1cccc(F)c1` (centres unmarked) [Example 167, 6-(2-Ethyl-morpholin-4-yl)-2-ethylsulfanyl-N-[(3-fluorophenyl)-methyl]-4-methyl-pyridine-3-carboxylic acid amide]: the Emax was found to be 137% and the EC50 is 113 nM.

On to `CSc1nc(N2CCOCC2)cc(C)c1C(=O)NCc1ccc(Cl)cc1` [Example 168, N-[(4-Chlorophenyl)-methyl]-4-methyl-2-methylsulfanyl-6-morpholin-4-yl-pyridine-3-carboxylic acid amide], for which the Emax amounted to 149% and the EC50 turned out to be 132 nM.

For the compound `Cc1cc(N2CCOC[C@H]2C)nc(C(C)C)c1C(=O)NCc1ccc(F)cc1` [Example 169, N-[(4-Fluorophenyl)-methyl]-2-isopropyl-4-methyl-6-[(3R)-3-methyl-morpholin-4-yl]-pyridine-3-carboxylic acid amide], the Emax came out at 197% and the EC50 came out at 24 nM.

On to `CCSc1nc(N(C)c2ccccn2)cc(C)c1C(=O)NCc1cccc(F)c1` [Example 170, 2-Ethylsulfanyl-N-[(3-fluorophenyl)-methyl]-4-methyl-6-(methyl-pyridin-2-yl-amino)-pyridine-3-carboxylic acid amide], for which the Emax amounted to 84% and the EC50 was determined as 1240 nM.

`CCSc1nc(N(C)c2cccnc2)cc(C)c1C(=O)NCc1cccc(F)c1` [Example 171, 2-Ethylsulfanyl-N-[(3-fluorophenyl)-methyl]-4-methyl-6-(methyl-pyridin-3-yl-amino)-pyridine-3-carboxylic acid amide]: the Emax amounted to 62% and the EC50 was determined as 1940 nM.

Regarding `Cc1cc(N2CCOC[C@H]2C)nc(N(C)C)c1C(=O)NCc1ccc(F)cc1` [Example 172, 2-Dimethylamino-N-[(4-fluorophenyl)-methyl]-4-methyl-6-[(3R)-3-methyl-morpholin-4-yl]-pyridine-3-carboxylic acid amide], the Emax turned out to be 246% and the EC50 worked out at 378 nM.

`CCN(C)c1nc(N2CCOC[C@H]2C)cc(C)c1C(=O)NCc1ccc(F)cc1` [Example 173, 2-(Ethyl-methyl-amino)-N-[(4-fluorophenyl)-methyl]-4-methyl-6-[(3R)-3-methyl-morpholin-4-yl]-pyridine-3-carboxylic acid amide]: the Emax was determined as 259% and the EC50 was determined as 201 nM.

With `CCN(C)c1nc(N2CCOCC2)cc(C)c1C(=O)NCc1ccc(F)cc1` [Example 174, 2-(Ethyl-methyl-amino)-N-[(4-fluorophenyl)-methyl]-4-methyl-6-morpholin-4-yl-pyridine-3-carboxylic acid amide], the Emax was 221% and the EC50 came to 422 nM.

In the case of `CCSc1nc(N(C)CC2CCCOC2)cc(C)c1C(=O)NCc1cccc(F)c1` (centres unmarked) [Example 175, 2-Ethylsulfanyl-N-[(3-fluorophenyl)-methyl]-4-methyl-6-[methyl-(tetrahydro-pyran-3-yl-methyl)-amino]-pyridine-3-carboxylic acid amide], the Emax is 114% and the EC50 stood at 870 nM.

Regarding `CSc1nc(N2CCOC[C@H]2C)cc(C)c1C(=O)NCc1ccc(F)cc1` [Example 176, N-[(4-Fluorophenyl)-methyl]-4-methyl-6-[(3R)-3-methyl-morpholin-4-yl]-2-methylsulfanyl-pyridine-3-carboxylic acid amide], the Emax is 215% and the EC50 came out at 136 nM.

`CCSc1nc(N2CCOC[C@H]2C)cc(C)c1C(=O)NCc1ccc(F)cc1` [Example 177, 2-Ethylsulfanyl-N-[(4-fluorophenyl)-methyl]-4-methyl-6-[(3R)-3-methyl-morpholin-4-yl]-pyridine-3-carboxylic acid amide]: the Emax stood at 174% and the EC50 was found to be 97 nM.

As to `CCSc1nc(N2CCOCC2CC)cc(C)c1C(=O)NCc1cccc(F)c1` (centres unmarked) [Example 178, 6-(3-Ethyl-morpholin-4-yl)-2-ethylsulfanyl-N-[(3-fluorophenyl)-methyl]-4-methyl-pyridine-3-carboxylic acid amide], the Emax is 147% and the EC50 amounted to 54 nM.

With `CCSc1nc(N2CCOC[C@H]2COC)cc(C)c1C(=O)NCc1cccc(F)c1` [Example 179, 2-Ethylsulfanyl-N-[(3-fluorophenyl)-methyl]-6-[(3R)-3-(methoxymethyl)-morpholin-4-yl]-4-methyl-pyridine-3-carboxylic acid amide], the Emax came to 190% and the EC50 amounted to 243 nM.

Take `CCSc1nc(N2CCOC[C@@H]2COC)cc(C)c1C(=O)NCc1cccc(F)c1` [Example 180, 2-Ethylsulfanyl-N-[(3-fluorophenyl)-methyl]-6-[(3S)-3-(methoxymethyl)-morpholin-4-yl]-4-methyl-pyridine-3-carboxylic acid amide]: the Emax turned out to be 123% and the EC50 was determined as 86 nM.

Take `COc1nc(N2CCOC[C@H]2C)cc(C)c1C(=O)NCc1ccc(F)cc1` [Example 181, N-[(4-Fluorophenyl)-methyl]-2-methoxy-4-methyl-6-[(3R)-3-methyl-morpholin-4-yl]-pyridine-3-carboxylic acid amide]: the Emax is 167% and the EC50 stood at 255 nM.

As to `CCOc1nc(N2CCOC[C@H]2C)cc(C)c1C(=O)NCc1ccc(F)cc1` [Example 182, 2-Ethoxy-N-[(4-fluorophenyl)-methyl]-4-methyl-6-[(3R)-3-methyl-morpholin-4-yl]-pyridine-3-carboxylic acid amide], the Emax is 146% and the EC50 came to 125 nM.

The values are drawn from patent US9168259B2 (GRÜNENTHAL GMBH, priority 2010, dated 2015).
